Converted amounts (≈) assume the structure as drawn.
Legend:
[1] = system: vancomycin-susceptible enterococci; assay: broth micro-dilution, mean geometric MIC; type: cell-based, Enterococcus faecium and Enterococcus faecalis; conditions: enterococci, 24-hour incubation
[2] = system: vancomycin-resistant enterococci; assay: broth micro-dilution, mean geometric MIC; type: cell-based, Enterococcus faecium and Enterococcus faecalis; conditions: enterococci, 24-hour incubation
Entercoccus faecium 2041 = assay: broth micro-dilution MIC; type: cell-based; conditions: Entercoccus faecium 2041
Experimental: (§1) The formula I compounds have in vitro and in vivo activity against Gram-positive pathogenic bacteria. The MIC's were determined using a standard broth micro-dilution assay.

[3] = system: Staphylococcus epidermidis 270; assay: broth micro-dilution MIC; type: cell-based
Experimental: as §1

[4] = system: Streptococcus pneumoniae P1; assay: broth micro-dilution MIC; type: cell-based
Experimental: as §1

Entercoccus faecium 180 = assay: broth micro-dilution MIC; type: cell-based; conditions: Entercoccus faecium 180
Experimental: as §1

[5] = system: Haemophilus influenzae RD; assay: broth micro-dilution MIC; type: cell-based; conditions: Haemophilus influenzae RD
Experimental: as §1

[6] = system: Staphylococcus haemolyticus 415; assay: broth micro-dilution MIC; type: cell-based
Experimental: as §1

[7] = system: Staphylococcus haemolyticus 105; assay: broth micro-dilution MIC; type: cell-based
Experimental: as §1

[8] = system: Enterococcus gallinarum 245; assay: broth micro-dilution MIC; type: cell-based; conditions: Enterococcus gallinarum 245
Experimental: as §1

[9] = system: Staphylococcus aureus SA1199B; type: cell-based
Experimental: (§2) The MIC's were determined using a standard broth micro-dilution assay.

[10] = system: Staphylococcus aureus S13E; type: cell-based
Experimental: as §2

[11] = system: Staphylococcus aureus 446; assay: broth micro-dilution MIC; type: cell-based
Experimental: as §2

[12] = system: Streptococcus pyogenes C203; assay: broth micro-dilution MIC; type: cell-based
Experimental: as §2

[13] = system: Staphylococcus aureus X778; assay: broth micro-dilution MIC; type: cell-based
Experimental: as §2

[14] = system: Staphylococcus aureus 491; assay: broth micro-dilution MIC; type: cell-based
Experimental: as §2

[15] = system: Staphylococcus aureus SA1199; assay: broth micro-dilution MIC; type: cell-based
Experimental: as §2

[16] = system: Staphylococcus aureus X400; assay: broth micro-dilution MIC; type: cell-based
Experimental: as §2

[17] = system: Staphylococcus aureus SA1199A; assay: broth micro-dilution MIC; type: cell-based
Experimental: as §2

[18] = system: Entercoccus faecium 180-1; assay: broth micro-dilution MIC; type: cell-based
Experimental: as §2

[19] = system: Staphylococcus aureus 489; assay: broth micro-dilution MIC; type: cell-based
Experimental: as §2

[20] = system: Staphylococcus aureus 447; assay: broth micro-dilution MIC; type: cell-based
Experimental: as §2

Entercoccus faecium 276 = assay: broth micro-dilution MIC; type: cell-based
Experimental: as §2

| SMILES | mean geometric MIC, Vancomycin Sensitive Strains [1] | mean geometric MIC, Vancomycin Resistant Strains [2] | MIC (Entercoccus faecium 2041) | MIC [3] | MIC [4] | MIC (Entercoccus faecium 180) | MIC [5] | MIC [6] | MIC [7] | MIC [8] | MIC [9] | MIC [10] | MIC [11] | MIC [13] | MIC [14] | MIC [15] | MIC [16] | MIC [18] | MIC [19] | MIC (Entercoccus faecium 276) | other results |
| --- | --- | --- | --- | --- | --- | --- | --- | --- | --- | --- | --- | --- | --- | --- | --- | --- | --- | --- | --- | --- | --- |
| CNC(CC(C)C)C(=O)NC1C(=O)NC(CC(N)=O)C(=O)NC2C(=O)NC3C(=O)NC(C(=O)NC(C(=O)O)c4cc(O)cc(O)c4-c4cc3ccc4O)C(OC3CC(C)(N)C(O)C(C)O3)c3ccc(c(Cl)c3)Oc3cc2cc(c3OC2OC(CO)C(O)C(O)C2OC2CC(C)(NCc3c4ccccc4c(C)c4ccccc34)C(O)C(C)O2)Oc2ccc(cc2Cl)C1O (stereo not shown) [Compound 17] | 0.38 µg/mL | 9.5 µg/mL | 0.25 µg/mL (≈ 0.139 µM) | 4 µg/mL (≈ 2.23 µM) | ≤ 0.06 µg/mL | 2 µg/mL (≈ 1.11 µM) | 32 µg/mL (≈ 17.8 µM) | 8 µg/mL (≈ 4.45 µM) | 8 µg/mL (≈ 4.45 µM) | 0.5 µg/mL (≈ 0.278 µM) | 1 µg/mL (≈ 0.557 µM) | 1 µg/mL (≈ 0.557 µM) | 2 µg/mL (≈ 1.11 µM) | 0.5 µg/mL (≈ 0.278 µM) | 2 µg/mL (≈ 1.11 µM) | 4 µg/mL (≈ 2.23 µM) | 0.5 µg/mL (≈ 0.278 µM) | ≤ 0.06 µg/mL | 1 µg/mL (≈ 0.557 µM) | 0.5 µg/mL (≈ 0.278 µM) | MIC [12]: ≤ 0.06 µg/mL; MIC [17]: ≤ 0.06 µg/mL; MIC [20]: 8 µg/mL (≈ 4.45 µM) |
| CNC(CC(C)C)C(=O)NC1C(=O)NC(CC(N)=O)C(=O)NC2C(=O)NC3C(=O)NC(C(=O)NC(C(=O)O)c4cc(O)cc(O)c4-c4cc3ccc4O)C(OC3CC(C)(N)C(O)C(C)O3)c3ccc(c(Cl)c3)Oc3cc2cc(c3OC2OC(CO)C(O)C(O)C2OC2CC(C)(NCc3ccc(Oc4ccc(Cl)c(Cl)c4)cc3)C(O)C(C)O2)Oc2ccc(cc2Cl)C1O (stereo not shown) [Compound 81] | 0.042 µg/mL | 1.0 µg/mL | ≤ 0.06 µg/mL | 1 µg/mL (≈ 0.542 µM) | ≤ 0.06 µg/mL | ≤ 0.06 µg/mL | 16 µg/mL (≈ 8.68 µM) | 4 µg/mL (≈ 2.17 µM) | 1 µg/mL (≈ 0.542 µM) | 0.25 µg/mL (≈ 0.136 µM) | 1 µg/mL (≈ 0.542 µM) | 0.5 µg/mL (≈ 0.271 µM) | 2 µg/mL (≈ 1.08 µM) | 1 µg/mL (≈ 0.542 µM) | 1 µg/mL (≈ 0.542 µM) | 2 µg/mL (≈ 1.08 µM) | 1 µg/mL (≈ 0.542 µM) |  | 2 µg/mL (≈ 1.08 µM) | ≤ 0.06 µg/mL | MIC [12]: ≤ 0.06 µg/mL; MIC [17]: 0.5 µg/mL (≈ 0.271 µM); MIC [20]: 2 µg/mL (≈ 1.08 µM) |
| CNC(CC(C)C)C(=O)NC1C(=O)NC(CC(N)=O)C(=O)NC2C(=O)NC3C(=O)NC(C(=O)NC(C(=O)O)c4cc(O)cc(O)c4-c4cc3ccc4O)C(OC3CC(C)(N)C(O)C(C)O3)c3ccc(c(Cl)c3)Oc3cc2cc(c3OC2OC(CO)C(O)C(O)C2OC2CC(C)(NCCCCCCCCc3ccccc3)C(O)C(C)O2)Oc2ccc(cc2Cl)C1O (stereo not shown) [Compound 176] | 0.13 µg/mL | 1.2 µg/mL | 0.125 µg/mL (≈ 0.0702 µM) | 0.5 µg/mL (≈ 0.281 µM) |  | 2 µg/mL (≈ 1.12 µM) | 8 µg/mL (≈ 4.49 µM) | 2 µg/mL (≈ 1.12 µM) | 4 µg/mL (≈ 2.25 µM) | 2 µg/mL (≈ 1.12 µM) | 1 µg/mL (≈ 0.562 µM) | 2 µg/mL (≈ 1.12 µM) | 2 µg/mL (≈ 1.12 µM) | 1 µg/mL (≈ 0.562 µM) | 2 µg/mL (≈ 1.12 µM) | 2 µg/mL (≈ 1.12 µM) | 1 µg/mL (≈ 0.562 µM) | ≤ 0.06 µg/mL | 0.5 µg/mL (≈ 0.281 µM) | 2 µg/mL (≈ 1.12 µM) | MIC [20]: 1 µg/mL (≈ 0.562 µM) |
| CC#CCCCCCCCCCCNC1(C)CC(OC2C(Oc3c4cc5cc3Oc3ccc(cc3Cl)C(OC3CC(C)(N)C(O)C(C)O3)C3NC(=O)C(NC(=O)C5NC(=O)C(CC(N)=O)NC(=O)C(NC(=O)C(CC(C)C)NC)C(O)c5ccc(c(Cl)c5)O4)c4ccc(O)c(c4)-c4c(O)cc(O)cc4C(C(=O)O)NC3=O)OC(CO)C(O)C2O)OC(C)C1O (stereo not shown) [Compound 199] | 0.036 µg/mL | 1.4 µg/mL | ≤ 0.06 µg/mL | 0.5 µg/mL (≈ 0.282 µM) | ≤ 0.06 µg/mL | 0.5 µg/mL (≈ 0.282 µM) | 32 µg/mL (≈ 18.1 µM) | 4 µg/mL (≈ 2.26 µM) | 2 µg/mL (≈ 1.13 µM) | 4 µg/mL (≈ 2.26 µM) | 1 µg/mL (≈ 0.565 µM) | 0.5 µg/mL (≈ 0.282 µM) | 0.5 µg/mL (≈ 0.282 µM) | 1 µg/mL (≈ 0.565 µM) | 0.5 µg/mL (≈ 0.282 µM) | 1 µg/mL (≈ 0.565 µM) | 2 µg/mL (≈ 1.13 µM) | ≤ 0.06 µg/mL | 2 µg/mL (≈ 1.13 µM) | 1 µg/mL (≈ 0.565 µM) | MIC [12]: ≤ 0.06 µg/mL; MIC [20]: 1 µg/mL (≈ 0.565 µM) |
| CNC(CC(C)C)C(=O)NC1C(=O)NC(CC(N)=O)C(=O)NC2C(=O)NC3C(=O)NC(C(=O)NC(C(=O)O)c4cc(O)cc(O)c4-c4cc3ccc4O)C(OC3CC(C)(N)C(O)C(C)O3)c3ccc(c(Cl)c3)Oc3cc2cc(c3OC2OC(CO)C(O)C(O)C2OC2CC(C)(NCCCCCCCCOc3ccc(-c4ccccc4)cc3)C(O)C(C)O2)Oc2ccc(cc2Cl)C1O (stereo not shown) [Compound 201] | 0.44 µg/mL | 1.2 µg/mL | 1 µg/mL (≈ 0.534 µM) | 4 µg/mL (≈ 2.14 µM) | ≤ 0.06 µg/mL | 0.5 µg/mL (≈ 0.267 µM) | 32 µg/mL (≈ 17.1 µM) | 8 µg/mL (≈ 4.27 µM) | 8 µg/mL (≈ 4.27 µM) | 8 µg/mL (≈ 4.27 µM) |  | 8 µg/mL (≈ 4.27 µM) | 4 µg/mL (≈ 2.14 µM) | 4 µg/mL (≈ 2.14 µM) | 4 µg/mL (≈ 2.14 µM) | 8 µg/mL (≈ 4.27 µM) | 4 µg/mL (≈ 2.14 µM) | 0.5 µg/mL (≈ 0.267 µM) | 8 µg/mL (≈ 4.27 µM) | 4 µg/mL (≈ 2.14 µM) | MIC [12]: ≤ 0.06 µg/mL; MIC [17]: 2 µg/mL (≈ 1.07 µM) |
| CNC(CC(C)C)C(=O)NC1C(=O)NC(CC(N)=O)C(=O)NC2C(=O)NC3C(=O)NC(C(=O)NC(C(=O)O)c4cc(O)cc(O)c4-c4cc3ccc4O)C(OC3CC(C)(N)C(O)C(C)O3)c3ccc(c(Cl)c3)Oc3cc2cc(c3OC2OC(CO)C(O)C(O)C2OC2CC(C)(NCc3ccc(-c4ccccc4[N+](=O)[O-])c([N+](=O)[O-])c3)C(O)C(C)O2)Oc2ccc(cc2Cl)C1O (stereo not shown) [Compound 213] | 0.55 µg/mL | 1.0 µg/mL | ≤ 0.06 µg/mL | 0.5 µg/mL (≈ 0.27 µM) | ≤ 0.06 µg/mL | 0.125 µg/mL (≈ 0.0676 µM) | 32 µg/mL (≈ 17.3 µM) | 2 µg/mL (≈ 1.08 µM) | 0.5 µg/mL (≈ 0.27 µM) | 2 µg/mL (≈ 1.08 µM) | ≤ 0.06 µg/mL | ≤ 0.06 µg/mL | ≤ 0.06 µg/mL | ≤ 0.06 µg/mL | ≤ 0.06 µg/mL | ≤ 0.06 µg/mL | ≤ 0.06 µg/mL | ≤ 0.06 µg/mL | ≤ 0.06 µg/mL | ≤ 0.06 µg/mL | MIC [17]: ≤ 0.06 µg/mL |
| C=CCCCCCCCCNC1(C)CC(OC2C(Oc3c4cc5cc3Oc3ccc(cc3Cl)C(OC3CC(C)(N)C(O)C(C)O3)C3NC(=O)C(NC(=O)C5NC(=O)C(CC(N)=O)NC(=O)C(NC(=O)C(CC(C)C)NC)C(O)c5ccc(c(Cl)c5)O4)c4ccc(O)c(c4)-c4c(O)cc(O)cc4C(C(=O)O)NC3=O)OC(CO)C(O)C2O)OC(C)C1O (stereo not shown) [Compound 214] | 0.024 µg/mL | 0.71 µg/mL | 0.125 µg/mL (≈ 0.0722 µM) | ≤ 0.06 µg/mL | ≤ 0.06 µg/mL | 0.25 µg/mL (≈ 0.144 µM) | 32 µg/mL (≈ 18.5 µM) | 2 µg/mL (≈ 1.16 µM) | 1 µg/mL (≈ 0.578 µM) | 2 µg/mL (≈ 1.16 µM) | 1 µg/mL (≈ 0.578 µM) | 1 µg/mL (≈ 0.578 µM) | 1 µg/mL (≈ 0.578 µM) | 1 µg/mL (≈ 0.578 µM) | 1 µg/mL (≈ 0.578 µM) | 0.5 µg/mL (≈ 0.289 µM) | 0.5 µg/mL (≈ 0.289 µM) | ≤ 0.06 µg/mL | 1 µg/mL (≈ 0.578 µM) | 0.25 µg/mL (≈ 0.144 µM) | MIC [17]: 0.5 µg/mL (≈ 0.289 µM); MIC [20]: 2 µg/mL (≈ 1.16 µM) |
